The values that follow are results of earlier work, collected in paper PMC9605497, “Potential of Epidermal Growth Factor-like Peptide from the Sea Cucumber Stichopus horrens to Increase the Growth of Human Cells: In Silico Molecular Docking Approach” (Marine Drugs, 2022).

One data set addresses EGFR. As to conditions: SPR and AFM, experimental; ref [41] Kuo et al.; read-out: dissociation constant (Kd) of EGF and EGFR complex; cited from earlier work. An excerpt:
The values are different because docking is based on the scoring functions used. […] A lower Kd value means dissociation occurs at a slow rate and the binding affinity (Ka) between these ...

Another data set concerns carcinoma cells. As to conditions: 10 nM EGF; ref [75] Clark et al.; cited from earlier work. The protocol:
(§1) The rationale of testing peptide concentrations at 10 nM was based on a study done by Clark et al.. In the study, the EGFR expression in carcinoma cells was prolonged for 10 h when 10 nM of EGF was exerted, as compared to only 4 h of EGFR expression in 0.4 nM EGF. This is supported by another experiment by Zhao et al. where cell proliferation of CHO cells can only be induced when exerted with EGF concentrations below 0.1 ng/mL. In contrast, cell proliferation at higher EGF concentrations (1 to 100 ng/mL) was suppressed. The process of EGF binding to its receptor and the internali ...

The subject of a further data set is HeLa cells. As to conditions: ref [77]; cited from earlier work. The protocol: as §1
A further data set has as its system CHO cells. As to conditions: ref [76] Zhao et al., cited from earlier work. How it is done: as §1
In another data set the test system is human skin model. As to conditions: 50 nM, compared to 0.1 nM and 10 nM EGF; ref [18]; cited from earlier work. An excerpt:
Despite these nutritional properties that could be indirectly associated with the wound healing benefit of this marine organism, the full potential of sea cucumber as a source of marine therapeutic product remains unexplored and limited to the previous approaches of specific metabolite identification. Among the prospective molecules to be investigated are growth factors and cytokines, which are examples of important mitogens that ensure an effective wound healing process. Several mitogens are involved directly as growth factors in cell proliferation such as epidermal growth factor (EGF) ...

The subject of the next data set is receptors (EGFR). As to conditions: 0.156 to 5 ng/mL biotinylated EGF; ref [46] King et al.; cited from earlier work. The protocol:
The increasing binding activity was determined by both the concentration of biotinylated EGF tested and the number of cells used. In this study, inoculating about 80,000 cells gives a reproducible result as opposed to when lower number of cells was used. Increasing the ligand concentration could improve assessment of the binding signal of Sh-EGFl-1 peptide with human EGFR s ...

With “Human EGF: human EGF (chain C) of crystal structure 1IVO; also EGF of cited literature (MNSDSECPLSHDGYCLHDGVCMYIEALDKYACNCVVGYIGERCQYRDLKWWELR; biotin (conjugated with NHS-biotin; sites not stated))”, the Kd (usually a measure of binding affinity in units of concentration) on EGFR was about 177 nM. In addition, in the data set on carcinoma cells, the “duration of EGFR expression” value is 10 h. The “time for EGF binding and internalization of receptor” value with HeLa cells is “less than 30 min”. In the data set on CHO cells (1 to 100 ng/mL), the “cell proliferation at higher EGF concentrations” value is recorded as “suppressed”. In addition, the “EGF concentration inducing cell proliferation” value in the data set with CHO cells (CHO cells) is listed as “below 0.1 ng/mL”. The DNA synthesis entry in the data set on human skin model is “maximum increase of DNA synthesis”.

For the substance “biotinylated EGF: biotinylated EGF used by King et al.”, in the data set on receptors (EGFR), the absorbance reading result was “consistent increases in the absorbance reading”.
